{"source": "patent US20260364056A1", "about": "“METHODS OF TREATMENT OF NON-PANCREATIC GASTROINTESTINAL CANCERS” (IONCTURA bv, priority 2023, published 2026)", "key": {"HT-29 cells [1]": {"tested_on": "HT-29 cells", "test": "Wound healing assay", "type": "cell-based, human", "settings": "9 and 12 μM, serum-free", "protocol": "Cells were seeded in a 12-well plate in 10% FBS medium and grown to reach a 80-90% confluence. Then, a scratch was made on the cell monolayer by using a p200 pipette tip. The plate was washed with sterile PBS to remove the debris and on the outer bottom of the plate were created markings with a tip marker, used as reference points. Each cell line was incubated with medium without FBS and containing increasing concentrations of Compound 1 (1-3-9-12 μM). Images were acquired at 0, 24 and 48 h by using a confocal microscope Nikon Eclipse Ti2 in bright field microscope and analysed with image-J. Image-J software was used to measure the scratched area. Cell migratory ability of wound-healing was assessed using the following formula: [(wound area at 0 h)−(wound area at indicated time)]/(wound area at 0 h).\nImages were taken at time 0, 24 h and 48 h and cell migration into the cell-free region (outlined) was quantified.\nTumor progression is characterized by an enhanced cell motility and invasiveness. To expand upon the knowledge of the effects of Compound 1 on HLE, KKU-m213 and HT-29 cells, their migratory activity was assessed when treated with Compound 1 by using both, a wound healing and a transwell migration assay. Cells were seeded in a 12-well plate and, when a confluent monolayer was reached, an artificial gap was generated between the cells using a pipette tip. […]"}, "HLE cells": {"tested_on": "HLE cells", "test": "Annexin V staining (early apoptosis)", "type": "cell-based, human", "settings": "9 and 12 mM (so in the source), 4 h, serum-free; same effect = significantly (p<0.05) induced cell apoptosis", "protocol": "(§1) For detection of early apoptosis the Annexin V-FITC kit (Miltenyi Biotech) was used. Cells were seeded and grown on Nunc Lab-Tek II Chamber Slide. After a wash with PBS, cells were incubated with Compound 1 3, 9 and 12 μM in serum-free medium. After […] cells were washed with Binding Buffer (BB) and stained with a solution of Annexin V-FITC antibody in BB for 15′. After 2 washes with BB the cells were fixed with a 4% paraformaldehyde solution and a coverslip was mounted onto the slide using a DAPI Ready Made Solution with Antifade (Merck). Images were acquired using a confocal microscope Nikon Eclipse Ti2 and analysed with image-J.\n(§2) Fluorescence microscopy of cells treated with 3, 9 and 12 μM Compound 1 for 4 h and stained with Annexin V-FITC antibody. Annexin V positive cells are early apoptotic cells. Green fluorescence (Annexin V) was quantified using ImageJ software and correlated to DAPI blue fluorescence (nuclei).\n(§3) To further explore the activity of Compound 1 on gastrointestinal cancer cells, the effectiveness on cell apoptosis was investigated. Following incubation with Compound 1, cells underwent morphological changes of cell shrinkage and cytoplasmic vacuolization (FIG. 1C). An early event in apoptosis is represented by the loss of plasma membrane asymmetry, resulting in the translocation of phosphatidylserine (PS) from the inner to the outer plasma membrane leaflet. Exposed PS on the cell surface can be used to measure apoptosis by the binding with Annexin V. KKU-M213, HLE and HT-29 cells were incubated with increasing concentrations of Compound 1 (3, 9 and 12 μM). After 4 hours, cells were stained with a FITC-Annexin V antibody and fixed. […] Moreover, a human apoptosis antibody array was used to identify the differential expression of 43 apoptosis-related proteins in cells treated with 12 μM Compound 1 for 24 h compared to untreated cells."}, "HT-29 cells [2]": {"tested_on": "HT-29 cells", "test": "Annexin V staining (early apoptosis)", "type": "cell-based, human", "settings": "3, 9 and 12 mM (so in the source), 4 h, serum-free, dose dependent", "protocol": "as §1, §2, §3"}, "KKU-M213 cells [3]": {"tested_on": "KKU-M213 cells", "test": "Annexin V staining (early apoptosis)", "type": "cell-based, human", "settings": "3, 9 and 12 mM (so in the source), 4 h, serum-free, dose dependent", "protocol": "as §1, §2, §3"}, "[4]": {"tested_on": "apoptosis-related proteins", "test": "Human apoptosis antibody array", "type": "cell-based", "settings": "12 μM, 24 h, vs untreated cells", "protocol": "The Human Apoptosis Antibody Array Kit (ab134001, Abcam) was used to detect the apoptosis pathway. Briefly, cells were lysed and each membrane was incubated at 4 °C overnight with 500 μg of total extracted protein. Membranes were then washed and incubated overnight at 4 °C with Biotin-conjugated Anti-Cytokines. After an incubation of the membranes with HRP-streptavidin for 2 h at room temperature, chemiluminescence was detected using ChemiDoc XRS+ (Bio-Rad, Hercules, CA, USA). The images were analysed with Image Lab 5.2.1.\nThe representative images were randomly selected from at least 3 independent experiments.\nTo further explore the activity of Compound 1 on gastrointestinal cancer cells, the effectiveness on cell apoptosis was investigated. Following incubation with Compound 1, cells underwent morphological changes of cell shrinkage and cytoplasmic vacuolization (FIG. 1C). An early event in apoptosis is represented by the loss of plasma membrane asymmetry, resulting in the translocation of phosphatidylserine (PS) from the inner to the outer plasma membrane leaflet. Exposed PS on the cell surface can be used to measure apoptosis by the binding with Annexin V. KKU-M213, HLE and HT-29 cells were incubated with increasing concentrations of Compound 1 (3, 9 and 12 μM). After 4 hours, cells were stained with a FITC-Annexin V antibody and fixed. […]"}, "KKU-M213 cells [5]": {"tested_on": "KKU-M213 cells", "test": "Crystal violet staining and morphology under inverted light microscope", "type": "cell-based, human", "settings": "3, 9 and 12 μM, 72 h"}, "[6]": {"tested_on": "Intrahepatic cholangiocarcinoma cancer cells (patient-derived organoid cultures)", "test": "Patient-derived organoid formation/growth", "type": "cell-based", "settings": "3, 9 and 12 μm (so in the source), 14 days, compared to vehicle, P<0.001", "protocol": "To further explore the activity of Compound 1 on gastrointestinal cancer cells, the effectiveness on organoid formation was investigated. Intrahepatic cholangiocarcinoma cancer cells were isolated from tumour tissues, counted and embedded in 96-well plate with Matrigel. After 3D-model formation, three different concentrations of Compound 1 (3, 9 and 12 μm) were tested in these patient-derived organoid (PDO) cultures. […] Scale bars correspond to 50 μm, Data are presented as the mean±SD; ***P<0.001."}, "[7]": {"tested_on": "xenografted tumours of KKUM-213 cells and human cancer-associated fibroblasts", "test": "Tumour growth in vivo, mouse xenograft model of cholangiocarcinoma", "settings": "10 mg/kg twice daily, oral gavage, from 5th day, vs vehicle, n=5, Mann-Whitney P<0.05", "protocol": "To further explore the activity of Compound 1 on gastrointestinal cancer cells in vivo, the effectiveness in a mouse model of cholangiocarcinoma was investigated. Xenografted tumours were produced by co-injection of KKUM-213 cells and human cancer-associated fibroblasts (CAFs). Starting from the 5th day the mice were treated twice daily with Compound 1 (10 mg/kg) or vehicle (1% (w/v) methylcellulose in water) by oral gavage. The tumour volumes were monitored twice a week until the animals were sacrificed. […] Data are presented as the mean±SD (n=5 mice per group; Mann-Whitney test:*P<0.05)."}, "ATX": {"tested_on": "ATX", "settings": "cited from earlier work"}, "lung fibrosis": {"tested_on": "lung fibrosis", "settings": "compared with GLPG1690; cited from earlier work"}, "pancreatic cancer": {"tested_on": "pancreatic cancer", "settings": "compared with gemcitabine; cited from earlier work"}, "breast cancer": {"tested_on": "breast cancer", "settings": "in vivo; cited from earlier work"}}, "data": [{"smiles": "C[C@H](NC(=O)CCc1nc2cccnc2n1Cc1ccc(OC(F)(F)F)cc1)c1ccc(Cl)cc1", "note": "[Compound 1, N-[(S)-1-(4-chloro-phenyl)-ethyl]-3-[3-(4-trifluoromethoxy-benzyl)-3H-imidazo[4,5-b]pyridin-2-yl]-propionamide]", "values": [{"measurement": "inhibition of wound closure", "setting": "HT-29 cells [1]", "result": "significantly (p<0.05) inhibited wound closure"}, {"measurement": "induction of cell apoptosis (Annexin V)", "setting": "HLE cells", "result": "the same effect was seen"}, {"measurement": "induction of cell apoptosis (Annexin V)", "setting": "HT-29 cells [2]", "result": "significantly (p<0.05) induced cell apoptosis"}, {"measurement": "induction of cell apoptosis (Annexin V)", "setting": "KKU-M213 cells [3]", "result": "significantly (p<0.05) induced cell apoptosis"}, {"measurement": "differential expression of apoptosis-related proteins", "setting": "[4]", "result": "upregulating pro-apoptosic proteins including Bim, Caspase-3 and -8, HTRA, DR6, Fas, p53 and SMAC"}, {"measurement": "morphological changes", "setting": "KKU-M213 cells [5]", "result": "cells exhibit morphological changes and characteristics of apoptosis such as cell shrinkage and cytoplasmic vacuolization"}, {"measurement": "organoid growth inhibition", "setting": "[6]", "result": "significant organoid growth inhibition"}, {"measurement": "tumour progression (tumour volume)", "setting": "[7]", "result": "significantly reduces tumour progression"}, {"measurement": "ATX inhibition", "setting": "ATX", "result": "inhibits ATX with high selectivity"}, {"measurement": "reduction in fibrosis score", "setting": "lung fibrosis", "result": "greater reduction in fibrosis score compared with GLPG1690"}, {"measurement": "activity in pancreatic cancer model", "setting": "pancreatic cancer", "result": "comparable activity with gemcitabine"}, {"measurement": "dissemination of primary tumors", "setting": "breast cancer", "result": "inhibit the dissemination of primary tumors"}]}]}
